Test results: patent US20170158702A1, “MULTIVALENT RAS BINDING COMPOUNDS” (KYRAS THERAPEUTICS, INC., priority 2015, published 2017)
Structures can show the parent of a compound that is named as a salt.

Tests used:
Format in all cases: cell-based
[1] = tested on: NCI-H2023; assay: Viability assay with NCI-H2023; details: NCI-H2023, viability assay per Example 57
Procedure: NCI-H460 (Epithelial lung tissue; carcinoma; large cell lung cancer) were cultured in RPMI Medium 1640 (Invitrogen-22400105) supplemented with 10% fetal bovine serum (FBS; Invitrogen-10099141). All the cell lines were maintained in a humidified incubator at 37° C. with 5% CO2. Cell culture media and supplements were purchased from Invitrogen, and tissue culture flasks were purchased from Corning, 96-well plates were purchased from Greiner. CellTiter-Glo Luminescent Cell Viability Assay kits were purchased from Promega (Promega-G7573), cells counter Vi-Cell was purchased from Beckman, D300e digital dispenser was purchased from Tecan, detection instrument Envision was purchased from PerkinElmer.
Paclitaxel was purchased from SELLECK, test compounds, such as any one of the compounds disclosed herein, attained solubility in DMSO and when diluted into culture media. DMSO, solutions containing the test compounds, and culture media were warmed to 37° C. or room temperature for the solution preparation and dilutions.
NCI-H460 Cell line were seeded in 96-well plates (1200/well) and allowed to adhere to overnight (100 uL/well), for drug treatments with 2 fold dilution, 9 dose points, triplicates or vehicle control, compound stock solutions were prepared in DMSO and use D300e digital dispenser to add compounds to the wells to give the indicated final drug concentrations. Final DMSO concentration was 0.5%. Cellular ATP concentrations were assessed by using the CellTiter-Glo Cell Viability Assay as per the manufacturer's instructions 72 h after compounds addition. Additional cells lines were assayed with any one of the compounds disclosed herein according to the procedures described for the viability assay with NCI-H460.
A viability assay with NCI-H2023 (stage 3A, adenocarcinoma; non-small cell lung cancer) was performed with compounds listed in Table 16 according to the procedures described in Example 57.

[2] = tested on: MIA PaCa-2; assay: Viability assay with MIA PaCa-2; details: MIA PaCa-2, viability assay per Example 57
Method in brief: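 MIA PaCa-2 cells were seeded at 1200/well, allowed to adhere overnight, then treated in triplicate with 9-point 2-fold compound dilutions at 0.5% final DMSO. Viability was measured as cellular ATP by CellTiter-Glo luminescence 72 h after compound addition.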

[3] = tested on: NCI-H460; assay: Viability assay with NCI-H460 (CellTiter-Glo cytotoxicity assay, 72 h); details: NCI-H460 cell line, 72 h after compounds addition
Method in brief: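 NCI-H460 cells, RPMI 1640 + 10% FBS, seeded 1200/well and adhered overnight, then exposed to compounds at 9 points, 2-fold dilution, in triplicate, 0.5% DMSO final. Cellular ATP measured by CellTiter-Glo luminescence 72 h after addition.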

[4] = tested on: HT-29; assay: Viability assay with HT-29; details: HT-29, viability assay per Example 57
Method in brief: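 Cells seeded 1200/well, adhered overnight, then treated with 9-point 2-fold compound dilutions in triplicate (0.5% final DMSO). Viability taken as cellular ATP by CellTiter-Glo luminescence 72 h after compound addition.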

SMILES	EC50 [1] [µM]	EC50 [2] [µM]	EC50 [3] [µM]	EC50 ([2]; Homo sapiens) [µM]	EC50 ([3]; Homo sapiens) [µM]	EC50 [4] [µM]
NCCNCCCn1cc(-c2ccc(OC(F)(F)F)cc2)c2cc(CN3CCN(Cc4c(Cl)cccc4Cl)CC3)ccc21 [C26; HCl]	≤ 5	≤ 5	≤ 5	–	–	–
COc1cccc(OC)c1CN1CCN(Cc2ccc3c(c2)c(-c2ccc(OC(F)(F)F)cc2)cn3CCCNC(=O)C2(N)CCNCC2)CC1 [C49; HCl]	5 to 10	5 to 10	5 to 10	–	–	–
CC(C)N1CCN(Cc2ccc3c(c2)c(-c2ccc(OC(F)(F)F)cc2)cn3CCCNC(=O)C2(N)CCNCC2)CC1 [C34; HCl]	10 to 30	10 to 30	10 to 30	–	–	–
NC1(C(=O)NCCCn2cc(-c3ccc(O)cc3)c3cc(CN4CCN(Cc5c(Cl)cccc5Cl)CC4)ccc32)CCNCC1 [C36; HCl]	> 30	10 to 30	> 30	–	–	–
NCCCn1cc(-c2ccc(OC(F)(F)F)cc2)c2cc(CN3CCN(C(=O)c4ccccc4Cl)CC3)ccc21 [C15; HCl]	≤ 5	≤ 5	≤ 5	–	–	–
OCCNCCCn1cc(-c2ccc(OC(F)(F)F)cc2)c2cc(CN3CCN(Cc4c(Cl)cccc4Cl)CC3)ccc21 [Compound C20, 2-(3-(5-((4-(2,6-dichlorobenzyl)piperazin-1-yl)methyl)-3-(4-(trifluoromethoxy)phenyl)-1H-indol-1-yl)propylamino)ethanol]	≤ 5	–	–	≤ 5	≤ 5	–
Cc1cccc(C)c1CN1CCN(Cc2ccc3c(c2)c(-c2ccc(OC(F)(F)F)cc2)cn3CCCNC(=O)C2(N)CCNCC2)CC1 [C54; HCl]	≤ 5	≤ 5	≤ 5	–	–	–
N#Cc1ccc(-c2cn(CCCNC(=O)C3(N)CCNCC3)c3ccc(CN4CCN(Cc5c(Cl)cccc5Cl)CC4)cc23)cc1 [C40; HCl]	≤ 5	≤ 5	≤ 5	–	–	–
NC1(C(=O)NCCCn2cc(-c3ccc(OC(F)(F)F)cc3)c3cc(CN4CCNCC4)ccc32)CCNCC1 [C48; HCl]	> 30	> 30	> 30	–	–	–
NCCCn1cc(-c2ccc(OC(F)(F)F)cc2)c2cc(CN3CC4CCC(C3)N4Cc3c(Cl)cccc3Cl)ccc21 [C32; HCl]	≤ 5	≤ 5	≤ 5	–	–	–
CCN1CCN(Cc2ccc3c(c2)c(-c2ccc(OC(F)(F)F)cc2)cn3CCCNC(=O)C2(N)CCNCC2)CC1 [C27; HCl]	10 to 30	10 to 30	> 30	–	–	–
CNCCCn1cc(-c2ccc(OC(F)(F)F)cc2)c2cc(CN3CCN(Cc4c(Cl)cccc4Cl)CC3)ccc21 [C21; Formic acid]	≤ 5	≤ 5	≤ 5	–	–	–
NC1(C(=O)NCCCn2cc(-c3ccc(OC(F)(F)F)cc3)c3cc(CN4CCN(Cc5c(Cl)cccc5Cl)CC4)ccc32)CCNCC1 [C41; Trifluoroacetic acid]	≤ 5	≤ 5	≤ 5	–	–	–
Cc1ccc(-c2cn(CCCNC(=O)C3(N)CCNCC3)c3ccc(CN4CCN(Cc5c(Cl)cccc5Cl)CC4)cc23)cc1 [C39; HCl]	≤ 5	≤ 5	≤ 5	–	–	–
NC1(C(=O)NCCCn2cc(-c3ccc(OC(F)(F)F)cc3)c3cc(CN4CCN(Cc5c(F)cccc5F)CC4)ccc32)CCNCC1 [C55; HCl]	≤ 5	≤ 5	≤ 5	–	–	–
N#Cc1ccc(-c2cn(CCCN)c3ccc(CN4CCN(Cc5c(Cl)cccc5Cl)CC4)cc23)cc1 [C33; HCl]	≤ 5	≤ 5	≤ 5	–	–	–
N[C@H]1CC[C@H](n2cc(-c3ccc(OC(F)(F)F)cc3)c3cc(CN4CCN(Cc5c(Cl)cccc5Cl)CC4)ccc32)C1 [C42; HCl]	≤ 5	≤ 5	≤ 5	–	–	–
CN(C)Cc1ccc2c(c1)c(-c1ccc(OC(F)(F)F)cc1)cn2CCCNC(=O)C1(N)CCNCC1 [C29; HCl]	10 to 30	> 30	10 to 30	–	–	–
NC1(C(=O)NCCCn2cc(-c3ccc(OC(F)(F)F)cc3)c3cc(CN4CCN(c5ccccc5)CC4)ccc32)CCNCC1 [C38; HCl]	≤ 5	≤ 5	≤ 5	–	–	–
NCCCn1cc(-c2ccc(OC(F)(F)F)cc2)c2cc(CN3CC4CCC(C3)N4Cc3ccccc3Cl)ccc21 [C17; HCl]	≤ 5	≤ 5	≤ 5	–	–	–

SMILES	EC50 [1] [µM]	EC50 [2] [µM]	EC50 [3] [µM]	EC50 ([2]; Homo sapiens) [µM]	EC50 ([3]; Homo sapiens) [µM]	EC50 [4] [µM]
N#Cc1cccc(-c2cn(CCCN)c3ccc(CN4CCN(Cc5c(Cl)cccc5Cl)CC4)cc23)c1 [C13; HCl]	≤ 5	≤ 5	≤ 5	–	–	–
Cc1ccc(-c2cn(CCCN)c3ccc(CN4CCN(Cc5c(Cl)cccc5Cl)CC4)cc23)cc1 [C51; HCl]	≤ 5	≤ 5	≤ 5	–	–	–
CNCc1ccc2c(c1)c(-c1ccc(OC(F)(F)F)cc1)cn2CCCNC(=O)C1(N)CCNCC1 [C16; HCl]	> 30	> 30	> 30	–	–	–
NC1(C(=O)NCCCn2cc(-c3ccc(OC(F)(F)F)cc3)c3cc(CN4C5CCC4CN(Cc4c(Cl)cccc4Cl)C5)ccc32)CCNCC1 [C56; HCl]	≤ 5	≤ 5	≤ 5	–	–	–
CCOC(=O)CNCCCn1cc(-c2ccc(OC(F)(F)F)cc2)c2cc(CN3CCN(Cc4c(Cl)cccc4Cl)CC3)ccc21 [Compound C28, ethyl 2-(3-(5-((4-(2,6-dichlorobenzyl)piperazin-1-yl)methyl)-3-(4-(trifluoromethoxy)phenyl)-1H-indol-1-yl)propylamino)acetate]	5 to 10	–	–	≤ 5	5 to 10	–
NC1CCC(c2cn(-c3ccc(OC(F)(F)F)cc3)c3cc(CN4CCN(Cc5c(Cl)cccc5Cl)CC4)ccc23)C1 (stereo not drawn) [C30; HCl]	≤ 5	≤ 5	≤ 5	–	–	–
NC1(C(=O)NCCCCn2cc(-c3ccc(OC(F)(F)F)cc3)c3cc(CN4CCN(Cc5c(Cl)cccc5Cl)CC4)ccc32)CCNCC1 [C35; HCl]	≤ 5	≤ 5	≤ 5	–	–	–
CC(=O)NCCCn1cc(-c2ccc(OC(F)(F)F)cc2)c2cc(CN3CCN(Cc4c(Cl)cccc4Cl)CC3)ccc21 [C47; Formic acid]	≤ 5	≤ 5	≤ 5	–	–	–
NCCCn1cc(-c2ccc(OC(F)(F)F)cc2)c2cc(CN3CCN(S(=O)(=O)c4ccccc4Cl)CC3)ccc21 [C14; HCl]	≤ 5	≤ 5	≤ 5	–	–	–
NCCCn1cc(-c2ccc(F)cc2)c2cc(CN3CCN(Cc4c(Cl)cccc4Cl)CC3)ccc21 [C23; Formic acid]	≤ 5	≤ 5	≤ 5	–	–	–
NCCCn1cc(-c2ccc(OC(F)(F)F)cc2)c2cc(CN3CCC(NCC(F)(F)F)CC3)ccc21 [C233; HCl]	–	5 to 10	≤ 5	–	–	5 to 10
COc1cccc(NC2CCN(Cc3ccc4c(c3)c(-c3ccc(OC(F)(F)F)cc3CN)cn4CCCN)CC2)c1 [C277; HCl]	–	≤ 5	≤ 5	–	–	≤ 5
NCCCn1cc(-c2ccc(OC(F)(F)F)cc2)c2c(CN3CCN(Cc4ccccc4Cl)CC3)cccc21 [C183; HCl]	–	≤ 5	≤ 5	–	–	≤ 5
CC1(C)CCN(Cc2ccc3c(c2)c(-c2ccc(OC(F)(F)F)cc2CN)cn3CCCN)CC1 [C272; HCl]	–	5 to 10	≤ 5	–	–	≤ 5
NCCCn1cc(-c2ccc(OC(F)(F)F)cc2CN)c2cc(CN3CCCC(N)C3)ccc21 (stereo not drawn) [C259; HCl]	–	5 to 10	5 to 10	–	–	5 to 10
NCCc1cccc(-n2cc(-c3ccc(OC(F)(F)F)cc3)c3cc(CN4CCN(Cc5ccccc5Cl)CC4)ccc32)c1 [C235; Formic Acid]	–	≤ 5	≤ 5	–	–	≤ 5
FC(F)(F)Oc1ccc(-c2cn(C3CCNCC3)c3ccc(CN4CCN(Cc5ccccc5Cl)CC4)cc23)cc1 [C170; HCl]	–	≤ 5	≤ 5	–	–	≤ 5
NCCCn1cc(-c2ccc(OC(F)(F)F)cc2)c2cc(S(=O)(=O)N3CCN(Cc4ccccc4Cl)CC3)ccc21 [C153; Formic Acid]	–	≤ 5	≤ 5	–	–	≤ 5
COc1cc(CN2CCN(S(=O)(=O)c3ccc4c(c3)c(-c3ccc(OC(F)(F)F)cc3CN)cn4CCCN)CC2)cc(OC)c1 [C240; Formic Acid]	–	≤ 5	≤ 5	–	–	≤ 5
